Assay results published in PubChem BioAssay AID2060328 (Molecular Pharmacology Branch, DTP, NCI, 2025).

System: MDA-MB-231 multicell spheroids, viability (%T/C)
Experiment: Anticancer human tumor MDA-MB-231 cell line growth inhibition [IpAb];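 further: viability read after seven days of drug exposure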;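 on viability, T/C: 100% = DMSO vehicle control viability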
Details: for IC50: curve of first compound; for viability, T/C: stronger effect = lower value
Source text: Combinatorial screen of targeted agents with ipatasertib and abemaciclib in multi-cell type tumor spheroids
A high-throughput screen of multi-cell type tumor spheroids was designed to identify active combinations of targeted small molecules and ipatasertib or abemaciclib. Complex spheroids include a stromal component modeled by human endothelial cells (HUVEC) and fibroblasts modeled by human mesenchymal stem cells (MSCs). The concentration ranges selected for each drug and investigational agent were based upon clinically achievable concentrations if the clinical Cmax of the agent was known.
Compounds. The drugs and investigational agents: ipatasertib (NSC767898), abemaciclib(NSC768073), selumetinib (NSC741078), trametinib (758246), adavosertib (NSC754352), everolimus (NSC733504), sapanisertib (NSC764658), vemurafenib (NSC761431), venetoclax (NSC766270), copanlisib (NSC809693), apelisib (NSC765974), palbociblib (NSC758247), vemurafenib (NSC761431), dabrafenib (NSC764134), ravoxertinib (NSC781343), BMS-387032 (NSC767048), sotorasib (NSC818433), talazoparib (NSC767125) and afursertib (NSC778305), were obtained from the National Cancer Institute (NCI) Developmental Therapeutics Program Chemical Repository. The FDA-approved anticancer drug set is available from the NCI Developmental Therapeutics Program. […] The stock solutions were prepared in dimethyl sulfoxide (DMSO, Sigma-Aldrich, St. Louis, MO, cat. D2650) at 800-fold the tested concentration and stored at -70 degrees C prior to their use. All drugs and investigational agents were tested over a range starting from a high concentration at or near the clinical Cmax and decreasing in half-log increments. If the clinical Cmax for an agent had not been determined, the highest concentration tested was 10 microM.
NCI60 Cell Culture. NCI60 cell lines were obtained from the NCI Developmental Therapeutics Program Tumor Repository. For each lot of cells, the Repository performed Applied Biosystems AmpFLSTR Identifiler testing with PCR amplification to confirm consistency with the published Identifier STR profile for each cell line. Cells were kept in continuous culture for no more than 20 passages. The optimal seeding densities for each of the cell lines at each time point assessed were determined prior to performing the concentration response studies. Briefly, the NCI60 human tumor lines were grown as monolayers in RPMI 1640 medium supplemented with 10% FBS and 2 mmol/L L-glutamine.
An additional 9 lines were from the NCI60 cell line panel including MDA-MB-231 breast carcinoma, MDA-MB-468 breast carcinoma, MCF7 breast carcinoma, Hs578T breast carcinoma, MALME-3M melanoma, SK-MEL-2 melanoma, SK-OV-3 ovarian carcinoma, DU-145 prostate carcinoma, PC-3 prostate carcinoma, all cell lines along with major genetic alterations are listed on Table 2. Pooled donor human umbilical vein endothelial cells (HUVEC, Lonza, cat. CC-2519) and human mesenchymal stem cells (hMSC, Lonza, cat. PT-2501) were purchased from Lonza (Walkersville, MD).
PDMR cell lines were grown in complete medium (DC medium): Dulbecco's modified Eagle's medium (DMEM)/F12 supplemented with 5% fetal bovine serum (FBS), 2 mM L-glutamine, 100 U/mL penicillin and 100 µg/ml streptomycin, 0.4 µg/ml hydrocortisone, 10 ng/ml epidermal growth factor (EGF) recombinant human protein, 24 µg/mL adenine, and 0.1 mg/mL primocin. During culture from frozen stock vials, PDMR cells were cultured in the same medium containing 10 µM Y-27632 (see Table 3). The PDCs were cultured in complete DMEM/F12 media without 10 microM Y-27632 dihydrochloride for at least two passages prior to the screen. The pooled donor HUVEC and hMSC were cultured in endothelial cell growth medium 2 (PromoCell, Heidelberg, Germany, cat. C-22011) and mesenchymal stem cell growth medium 2 (PromoCell, cat. C-28009), respectively. For all experiments, HUVEC and hMSC were used at passages </=5.
[…]

## C=CCn1c(=O)c2cnc(Nc3ccc(N4CCN(C)CC4)cc3)nc2n1-c1cccc(C(C)(C)O)n1 + CC(C)NCC(C(=O)N1CCN(c2ncnc3c2C(C)CC3O)CC1)c1ccc(Cl)cc1
Second compound 0.1 µM
  IC50: 219 nM
Second compound 0.316 µM
  IC50: 188 nM
Second compound 1 µM
  IC50: 170 nM
Second compound 3.16 µM
  IC50: 91.4 nM
Second compound 10 µM
  IC50: < 31.6 nM
Second compound 0.1 µM, first compound 0.0316 µM
  viability, T/C: 93%
Second compound 0.1 µM, first compound 0.1 µM
  viability, T/C: 86.6%
Second compound 0.1 µM, first compound 0.316 µM
  viability, T/C: 32.9%
Second compound 0.1 µM, first compound 1 µM
  viability, T/C: 17.8%
Second compound 0.1 µM, first compound 3.16 µM
  viability, T/C: 16.4%
Second compound 0.1 µM, first compound 10 µM
  viability, T/C: 20.5%
Second compound 0.316 µM, first compound 0.0316 µM
  viability, T/C: 92.5%
Second compound 0.316 µM, first compound 0.1 µM
  viability, T/C: 74.4%
Second compound 0.316 µM, first compound 0.316 µM
  viability, T/C: 30.1%
Second compound 0.316 µM, first compound 1 µM
  viability, T/C: 17.3%
Second compound 0.316 µM, first compound 3.16 µM
  viability, T/C: 15.3%
Second compound 0.316 µM, first compound 10 µM
  viability, T/C: 19.6%
Second compound 1 µM, first compound 0.0316 µM
  viability, T/C: 76.7%
Second compound 1 µM, first compound 0.1 µM
  viability, T/C: 68.4%
Second compound 1 µM, first compound 0.316 µM
  viability, T/C: 28.3%
Second compound 1 µM, first compound 1 µM
  viability, T/C: 16.7%
Second compound 1 µM, first compound 3.16 µM
  viability, T/C: 15.5%
Second compound 1 µM, first compound 10 µM
  viability, T/C: 17.4%
Second compound 3.16 µM, first compound 0.0316 µM
  viability, T/C: 60.6%
Second compound 3.16 µM, first compound 0.1 µM
  viability, T/C: 48.8%
Second compound 3.16 µM, first compound 0.316 µM
  viability, T/C: 26.2%
Second compound 3.16 µM, first compound 1 µM
  viability, T/C: 15.1%
Second compound 3.16 µM, first compound 3.16 µM
  viability, T/C: 14.6%
Second compound 3.16 µM, first compound 10 µM
  viability, T/C: 16.9%
Second compound 10 µM, first compound 0.0316 µM
  viability, T/C: 44.6%
Second compound 10 µM, first compound 0.1 µM
  viability, T/C: 32.5%
Second compound 10 µM, first compound 0.316 µM
  viability, T/C: 21.2%
Second compound 10 µM, first compound 1 µM
  viability, T/C: 15.3%
Second compound 10 µM, first compound 3.16 µM
  viability, T/C: 15%
Second compound 10 µM, first compound 10 µM
  viability, T/C: 16.6%

## Cn1cnc2c(F)c(Nc3ccc(Br)cc3Cl)c(C(=O)NOCCO)cc21 + CC(C)NCC(C(=O)N1CCN(c2ncnc3c2C(C)CC3O)CC1)c1ccc(Cl)cc1
Second compound 0.1 µM
  IC50: < 9.49 nM
Second compound 0.316 µM
  IC50: < 9.49 nM
Second compound 1 µM
  IC50: < 9.49 nM
Second compound 3.16 µM
  IC50: < 9.49 nM
Second compound 10 µM
  IC50: < 9.49 nM
Second compound 0.1 µM, first compound 0.00949 µM
  viability, T/C: 43.2%
Second compound 0.1 µM, first compound 0.03 µM
  viability, T/C: 36.2%
Second compound 0.1 µM, first compound 0.0949 µM
  viability, T/C: 34.3%
Second compound 0.1 µM, first compound 0.3 µM
  viability, T/C: 27.8%
Second compound 0.1 µM, first compound 0.949 µM
  viability, T/C: 23.4%
Second compound 0.1 µM, first compound 3 µM
  viability, T/C: 13%
Second compound 0.316 µM, first compound 0.00949 µM
  viability, T/C: 38%
Second compound 0.316 µM, first compound 0.03 µM
  viability, T/C: 31.8%
Second compound 0.316 µM, first compound 0.0949 µM
  viability, T/C: 29.5%
Second compound 0.316 µM, first compound 0.3 µM
  viability, T/C: 24.1%
Second compound 0.316 µM, first compound 0.949 µM
  viability, T/C: 20.4%
Second compound 0.316 µM, first compound 3 µM
  viability, T/C: 11.6%
Second compound 1 µM, first compound 0.00949 µM
  viability, T/C: 31.2%
Second compound 1 µM, first compound 0.03 µM
  viability, T/C: 28.2%
Second compound 1 µM, first compound 0.0949 µM
  viability, T/C: 24.8%
Second compound 1 µM, first compound 0.3 µM
  viability, T/C: 23%
Second compound 1 µM, first compound 0.949 µM
  viability, T/C: 17.5%
Second compound 1 µM, first compound 3 µM
  viability, T/C: 10.5%
Second compound 3.16 µM, first compound 0.00949 µM
  viability, T/C: 25%
Second compound 3.16 µM, first compound 0.03 µM
  viability, T/C: 22.6%
Second compound 3.16 µM, first compound 0.0949 µM
  viability, T/C: 20.6%
Second compound 3.16 µM, first compound 0.3 µM
  viability, T/C: 18.4%
Second compound 3.16 µM, first compound 0.949 µM
  viability, T/C: 14.5%
Second compound 3.16 µM, first compound 3 µM
  viability, T/C: 7.58%
Second compound 10 µM, first compound 0.00949 µM
  viability, T/C: 18.9%
Second compound 10 µM, first compound 0.03 µM
  viability, T/C: 16.9%
Second compound 10 µM, first compound 0.0949 µM
  viability, T/C: 13.8%
Second compound 10 µM, first compound 0.3 µM
  viability, T/C: 13.1%
Second compound 10 µM, first compound 0.949 µM
  viability, T/C: 8.94%
Second compound 10 µM, first compound 3 µM
  viability, T/C: 4.82%
